We go through eleven compounds from patent US5565469A, “Benzimidazoles and pharmaceutical compositions containing them” (Dr. Karl Thomae GmbH, priority 1994, dated 1996).

Broadly, the IC50 is the midpoint of a concentration-inhibition curve. Lower therefore signals inhibition by little substance.

This assay addresses T1, Angiotensin-II-receptor (Rattus norvegicus, UniProt P25095).
T1 construct: The tissue (rat's lung) is homogenised in tris buffer; from tissue; host or cells: rat lung homogenate
T1 sequence (P25095 1-359): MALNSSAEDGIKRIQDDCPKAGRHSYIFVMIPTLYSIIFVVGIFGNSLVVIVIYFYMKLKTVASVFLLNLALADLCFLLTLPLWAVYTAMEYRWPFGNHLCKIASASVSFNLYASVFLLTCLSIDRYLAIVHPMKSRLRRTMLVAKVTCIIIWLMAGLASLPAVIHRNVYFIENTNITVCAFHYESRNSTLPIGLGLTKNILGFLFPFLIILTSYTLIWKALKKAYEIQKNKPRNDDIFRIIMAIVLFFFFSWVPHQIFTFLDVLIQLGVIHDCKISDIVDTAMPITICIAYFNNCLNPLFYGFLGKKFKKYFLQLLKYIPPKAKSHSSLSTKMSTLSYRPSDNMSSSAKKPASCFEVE
Put plainly: Angiotensin-II-receptor binding (rat lung homogenate, [^125 I]-angiotensin-II displacement). Particulars: rat's lung homogenate; 50 pM [^125 I]-angiotensin-II; 60 minutes at 37° C.; pH 7.40. The protocol:
The tissue (rat's lung) is homogenised in tris buffer (50 mMol Tris, 150 mMol NaCl, 5 mMol EDTA, pH 7.40) and centrifuged twice for 20 minutes each time at 20,000×g. The resulting pellet is resuspended in incubation buffer (50 mMol Tris, 5 mMol MgCl2, 0.2% BSA, pH 7.40) 1:75, based on the moist weight of the tissue. Each 0.1 ml of homogenate is incubated for 60 minutes at 37° C. with 50 pM [^125 I]-angiotensin-II (NEN, Dreieich, FRG) and increasing concentrations of the test substance in a total volume of 0.25 ml. The incubation is terminated by rapid filtration through glass fibre filter mats. The filters are each washed with 4 ml of ice cold buffer (25 mMol Tris, 2.5 mMol MgCl2, 0.1% BSA, pH 7.40). The bound radioactivity is measured in a gamma-counter. The corresponding IC50 value is determined from the dosage-activity curve.

In the case of `CCCc1nc2c(C)cc(-c3nc4ccccc4n3C)cc2n1Cc1ccc(-c2ccccc2S(=O)(=O)NC(=O)NC2CCCCC2)cc1` [G], the concentration for half-maximal inhibition (IC50) is 310 nM.

Turning to `CCCc1nc2c(C)cc(-c3nc4ccccc4n3C)cc2n1Cc1ccc(-c2ccccc2C=C2SC(=O)NC2=O)cc1` [A], the IC50 is 94 nM.

`CCc1nc2c(C)cc(-c3cn4c(n3)CCCC4)cc2n1Cc1ccc(-c2ccccc2S(=O)(=O)NC(=O)NC2CCCCC2)cc1` [K]: the IC50 was determined as 73 nM.

`CCCc1nc2c(C)cc(-c3nc4ccccc4n3C)cc2n1Cc1ccc(-c2ccccc2S(=O)(=O)O)cc1` [B] registered an IC50 of 8 nM.

With `CCc1nc2c(C)cc(-c3cn4c(n3)CCCC4)cc2n1Cc1ccc(-c2ccccc2S(=O)(=O)O)cc1` [C], the IC50 came out at 3.4 nM.

In turn, `CCCCc1nc2c(C)cc(N3CCCS3(=O)=O)cc2n1Cc1ccc(-c2ccccc2S(=O)(=O)NC(=O)c2ccccc2)cc1` [J] yielded an IC50 of 13.9 nM.

Turning to `CCCc1nc2c(C)cc(-c3nc4ccccc4n3C)cc2n1Cc1ccc(-c2ccccc2NC(=O)C(F)(F)F)cc1` [D], the IC50 is 40 nM.

Take `CCCc1nc2c(C)cc(-c3nc4ccccc4n3C)cc2n1Cc1ccc(-c2ccccc2S(=O)(=O)NC(=O)c2ccccc2)cc1` [H]: the IC50 came to 78 nM.

Turning to `CCc1nc2c(C)cc(-c3cn4c(n3)CCCC4)cc2n1Cc1ccc(-c2ccccc2S(=O)(=O)NC(=O)c2ccccc2)cc1` [I], the IC50 came out at 36 nM.

Take `CCc1nc2c(C)cc(-c3cn4c(n3)CCCC4)cc2n1Cc1ccc(-c2ccccc2NC(=O)C(F)(F)F)cc1` [E]: the IC50 is 28 nM.

Take `CCCc1nc2c(C)cc(-c3nc4ccccc4n3C)cc2n1Cc1ccc(-c2ccccc2S(=O)(=O)NC(=O)NCc2ccc(OC)cc2)cc1` [F]: the IC50 came to 110 nM.
